Several values for one entry are separate records, joined by “and”; a condition that tells them apart may be missing. Identical values can stand only once.
How the values were obtained:
A/WSN/33 virus = experiment: Influenza A viral growth assay (viral titer of culture media); assay type: cell-based, influenza A H1N1 virus; conditions: A/WSN/33 (WSN), 12.5uM; for viral titer of culture media, ave: average of #1-3 exp (n=9); for viral titer of culture media, individual replicate: replicates of #1-3 exp
A/PR/8/34 virus = experiment: as above; assay type: cell-based, influenza A H1N1 virus; parameters: viral titer of culture media, individual replicate / viral titer of culture media, ave: unit not given here; conditions: A/PR/8/34 (PR8), 12.5uM; for viral titer of culture media, ave: average of #1-3 exp (n=9); for viral titer of culture media, individual replicate: replicates of #1-3 exp
MDCK cells = experiment: MTT assay (cytotoxicity against MDCK cells); assay type: cell-based, canine; conditions: MDCK cells; for MTT, DMSO as 100 (DMSOを 100として), ave / MTT 72h AVE (DMSO = 100): 72h; for MTT, DMSO as 100 (DMSOを 100として), ave: mean of 5 wells (200409 #1 and #3); for MTT 72h AVE (DMSO = 100): summary AVE; for MTT 24h, AVE (DMSO as 100) / MTT 24h, 570-650nm, DMSO as 100, ave: mean of 5 wells from 3 experiments; for MTT 24h, AVE (DMSO as 100): relative to DMSO = 100; for MTT 24h, 570-650nm, DMSO as 100, single replicate: individual wells (200331; 200403 #2 1,2; 200403 #3 1,2); for 570-650nm (MTT absorbance, single wells) / 570-650nm ave (mean MTT absorbance of 5 wells) / MTT absorbance with DMSO as 100 (DMSOを 100として), single wells: MTT 72h; for 570-650nm (MTT absorbance, single wells): experiments #1-#3, duplicate wells; for MTT absorbance with DMSO as 100 (DMSOを 100として), single wells: relative to mean of DMSO
Method: 1–5 (0.8–100 μM) were prepared in DMSO (100 μM, 1%; 50 μM, 0.5%; 25 μM, 0.25%; 12.5 μM, 0.125%; 6.3 μM, 0.063%; 3.1 μM, 0.031%; 1.6 μM, 0.016%; 0.8 μM, 0.008%) and mixed with infection medium (DMEM supplemented with 1% bovine serum albumin (BSA; Wako), P/S and 4 mM L-glutamine). The resulting mixture was added to the cells and incubated for 24 or 72 h at 37°C in the presence of 5% CO2. After incubation, cell viability was determined using an MTT cell count kit (Nacalai Tesque) according to the manufacturer’s instructions, as previously described.

SMILES: C=C[C@]1(C)CC[C@H](C(=C)C)[C@@H](c2ccc(O)cc2)C1 [(1R,3R,4R)-cyclobakuchiol A]
- viral titer of culture media, ave (A/WSN/33 virus; 12h): 10300
- viral titer of culture media, individual replicate (A/WSN/33 virus; 12h): 300 and 1400 and 1000 and 40000 and 10000 (5×)
- viral titer of culture media, ave (A/WSN/33 virus; 24h): 22944444
- viral titer of culture media, individual replicate (A/WSN/33 virus; 24h): 2600000 and 3900000 and 1000000 and 60000000 and 10000000 and 9000000 and 20000000 and 30000000 and 70000000
- viral titer of culture media, ave (A/WSN/33 virus; 48h): 177111111
- viral titer of culture media, individual replicate (A/WSN/33 virus; 48h): 50000000 and 54000000 and 10000000 and 210000000 (2×) and 230000000 and 190000000 and 380000000 and 260000000
- viral titer of culture media, ave (A/WSN/33 virus; 72h): 106555556
- viral titer of culture media, individual replicate (A/WSN/33 virus; 72h): 10000000 (2×) and 7000000 and 200000000 and 150000000 (2×) and 60000000 and 330000000 and 42000000
- viral titer of culture media, ave (A/PR/8/34 virus; 12h): 31111.1
- viral titer of culture media, individual replicate (A/PR/8/34 virus; 12h): 90000 and 60000 and 30000 (2×) and 10000 (3×) and 20000 (2×)
- viral titer of culture media, ave (A/PR/8/34 virus; 24h): 25555.6
- viral titer of culture media, individual replicate (A/PR/8/34 virus; 24h): 40000 and 30000 (3×) and 10000 (3×) and 50000 and 20000
- viral titer of culture media, ave (A/PR/8/34 virus; 48h): 28888.9
- viral titer of culture media, individual replicate (A/PR/8/34 virus; 48h): 50000 (2×) and 30000 (2×) and 10000 (2×) and 20000 (2×) and 40000
- viral titer of culture media, ave (A/PR/8/34 virus; 72h): 20000
- viral titer of culture media, individual replicate (A/PR/8/34 virus; 72h): 10000 (6×) and 50000 and 30000 and 40000

SMILES: C=C[C@]1(C)CC[C@H](C(C)(C)O)[C@@H](c2ccc(O)cc2)C1 [(1R,3R,4R)-cyclobakuchiol C]
- viral titer of culture media, ave (A/WSN/33 virus; 12h): 8288.89
- viral titer of culture media, individual replicate (A/WSN/33 virus; 12h): 3000 and 1000 and 600 and 10000 (5×) and 20000
- viral titer of culture media, ave (A/WSN/33 virus; 24h): 21277778
- viral titer of culture media, individual replicate (A/WSN/33 virus; 24h): 1600000 and 1000000 and 900000 and 30000000 (2×) and 21000000 and 9000000 and 70000000 and 28000000
- viral titer of culture media, ave (A/WSN/33 virus; 48h): 246888889
- viral titer of culture media, individual replicate (A/WSN/33 virus; 48h): 100000000 and 150000000 and 62000000 and 140000000 and 350000000 (2×) and 410000000 and 280000000 and 380000000
- viral titer of culture media, ave (A/WSN/33 virus; 72h): 155211111
- viral titer of culture media, individual replicate (A/WSN/33 virus; 72h): 10000000 and 20000000 and 6900000 and 130000000 and 170000000 and 230000000 (2×) and 300000000 (2×)
- viral titer of culture media, ave (A/PR/8/34 virus; 12h): 33333.3
- viral titer of culture media, individual replicate (A/PR/8/34 virus; 12h): 40000 and 60000 (2×) and 30000 (2×) and 10000 (3×) and 50000
- viral titer of culture media, ave (A/PR/8/34 virus; 24h): 52222.2
- viral titer of culture media, individual replicate (A/PR/8/34 virus; 24h): 190000 and 20000 and 90000 and 10000 (3×) and 70000 and 40000 and 30000
- viral titer of culture media, ave (A/PR/8/34 virus; 48h): 37777.8
- viral titer of culture media, individual replicate (A/PR/8/34 virus; 48h): 50000 (2×) and 20000 and 80000 and 10000 (3×) and 40000 and 70000
- viral titer of culture media, ave (A/PR/8/34 virus; 72h): 43333.3
- viral titer of culture media, individual replicate (A/PR/8/34 virus; 72h): 40000 and 20000 (2×) and 90000 and 10000 (2×) and 50000 and 70000 and 80000

SMILES: C=C[C@]1(C)CC[C@@H](C(C)(C)O)[C@H](c2ccc(O)cc2)C1 [Cyclo. D]
- MTT, DMSO as 100 (DMSOを 100として), ave (MDCK cells; 0.78uM): 98.8071
- MTT, DMSO as 100 (DMSOを 100として), ave (MDCK cells; 1.56uM): 117.006
- MTT, DMSO as 100 (DMSOを 100として), ave (MDCK cells; 3.125uM): 147.657
- MTT 72h AVE (DMSO = 100) (MDCK cells; 6.25 (uM)): 128.371
- MTT 72h AVE (DMSO = 100) (MDCK cells; 12.5 (uM)): 127.934
- MTT 72h AVE (DMSO = 100) (MDCK cells; 25 (uM)): 145.717
- MTT 72h AVE (DMSO = 100) (MDCK cells; 50 (uM)): 126.261
- MTT 72h AVE (DMSO = 100) (MDCK cells; 100 (uM)): 126.655
- MTT 24h, AVE (DMSO as 100) (MDCK cells; 0.78 uM): 97.8994
- MTT 24h, AVE (DMSO as 100) (MDCK cells; 1.56 uM): 96.8321
- MTT 24h, 570-650nm, DMSO as 100, single replicate (MDCK cells; 3.125uM): 84.6917 and 82.6734 and 92.4491 and 113.857 and 84.268
- MTT 24h, 570-650nm, DMSO as 100, ave (MDCK cells; 3.125uM): 91.5878
- MTT 24h, 570-650nm, DMSO as 100, single replicate (MDCK cells; 6.25uM): 85.6335 and 89.7131 and 106.9 and 111.896 and 88.988
- MTT 24h, 570-650nm, DMSO as 100, ave (MDCK cells; 6.25uM): 96.6263
- MTT 24h, 570-650nm, DMSO as 100, single replicate (MDCK cells; 12.5uM): 81.4488 and 91.9219 and 102.896 and 113.782 and 96.5227
- MTT 24h, 570-650nm, DMSO as 100, ave (MDCK cells; 12.5uM): 97.3142
- MTT 24h, 570-650nm, DMSO as 100, single replicate (MDCK cells; 25uM): 77.2963 and 96.4082 and 113.294 and 115.224 and 87.3126
- MTT 24h, 570-650nm, DMSO as 100, ave (MDCK cells; 25uM): 97.9071
- MTT 24h, 570-650nm, DMSO as 100, single replicate (MDCK cells; 50uM): 91.2134 and 100.963 and 94.7794 and 115.361 and 101.24
- MTT 24h, 570-650nm, DMSO as 100, ave (MDCK cells; 50uM): 100.712
- MTT 24h, 570-650nm, DMSO as 100, single replicate (MDCK cells; 100uM): 94.6456 and 103.228 and 107.83 and 131.616 and 116.582
- MTT 24h, 570-650nm, DMSO as 100, ave (MDCK cells; 100uM): 110.78
- 570-650nm (MTT absorbance, single wells) (MDCK cells; 0.78uM): 0.4378 and 0.7486 and 0.8741 and 0.5119 and 0.7887 and 0.8621
- 570-650nm (MTT absorbance, single wells) (MDCK cells; 3.13uM (3.125uM in summary block)): 0.9735 and 1.011 and 0.8858 and 1.0444 and 0.9175 and 1.1144
- 570-650nm ave (mean MTT absorbance of 5 wells) (MDCK cells; 6.25uM): 0.8781
- MTT absorbance with DMSO as 100 (DMSOを 100として), single wells (MDCK cells; 6.25uM): 79.8684 and 128.626 and 158.904 and 136.433 and 138.026
- 570-650nm ave (mean MTT absorbance of 5 wells) (MDCK cells; 12.5uM): 1.0183
- 570-650nm (MTT absorbance, single wells) (MDCK cells; 12.5uM): 0.9745 and 1.0068 and 0.9175 and 1.0063 and 1.0002 and 1.1607
- MTT absorbance with DMSO as 100 (DMSOを 100として), single wells (MDCK cells; 12.5uM): 126.426 and 115.27 and 145.824 and 125.66 and 126.489
- 570-650nm ave (mean MTT absorbance of 5 wells) (MDCK cells; 25uM): 1.096
- 570-650nm (MTT absorbance, single wells) (MDCK cells; 25uM): 1.0789 and 1.1027 and 0.9947 and 1.0822 and 1.1213 and 1.1788
- MTT absorbance with DMSO as 100 (DMSOを 100として), single wells (MDCK cells; 25uM): 143.89 and 132.256 and 156.734 and 149.089 and 146.616
- 570-650nm ave (mean MTT absorbance of 5 wells) (MDCK cells; 50uM): 1.152
- 570-650nm (MTT absorbance, single wells) (MDCK cells; 50uM): 1.148 and 1.1434 and 1.0891 and 1.1437 and 1.0821 and 1.3031
- MTT absorbance with DMSO as 100 (DMSOを 100として), single wells (MDCK cells; 50uM): 125.321 and 119.338 and 142.787 and 118.571 and 125.288
- 570-650nm ave (mean MTT absorbance of 5 wells) (MDCK cells; 100uM): 1.192
- 570-650nm (MTT absorbance, single wells) (MDCK cells; 100uM): 1.3579 and 1.2781 and 1.2394 and 0.9368 and 1.1592 and 1.3488
- MTT absorbance with DMSO as 100 (DMSOを 100として), single wells (MDCK cells; 100uM): 99.5008 and 131.641 and 143.261 and 123.123 and 135.751

Source: article PMC7997032, “Organic synthesis and anti-influenza A virus activity of cyclobakuchiols A, B, C, and D” (PLoS ONE, 2021)
